The test system of series [1] is mouse brain neuroblastoma cells Nero2a. Nature of the series: Activity of mitochondria of neuron cells (JC-1 mitochondrial membrane potential assay, flow cytometer). Particulars: 24 hours, control group = 100%. The series is classed as cell-based. An excerpt:
1. Cell strain: mouse brain neuroblastoma. cells Nero2a, from the American Type
Culture Collection (ATCC®, Cat. CCL-131), hereinafter referred to as Nero2a cells.
2. Culture medium: Dulbecco's modified Eagle's medium (DMEM, purchased from Gibco, Cat. 11965-092) containing 10 vol % of Fetal Bovine Serum (FBS, purchased from Gibco, 10437-028) and 3.7 g/L of sodium bicarbonate (purchased from Sigma, S5761-500G).
4. Mitochondrial n embranepotential assay kit (MitoScreen (.IC-1) kit purchased from BD, model 551302): with ,IC-1 dye (lyophilized) and 10× assay buffer. Before use, the assay buffer was diluted 10-fold with 1 PBS solution to form 1× assay buffer, 130 μl of dimethyl sulfoxide (DMSO) was added into the JC-1 dye (lyophilized) to form a JC-1 stock solution. Then, the stock solution was diluted to 1/100 with the 1 × assay buffer to form a JC-1 working reagent
6. Flow cytometer: purchased from BD Pharmingen, model BDTM Accuri C6 Plus.
The Nero2a cells were seeded into a 6-well culture plate at a density of […] cells per well, and 2 ml., of the above-mentioned fresh culture medium was added to each well and incubated for 24 hours at 37° C. and 5% CO2.
Remove the culture medium from each well. The Nero2a cells were divided into a control group and experimental groups 1-5. Control group was added with the fresh culture medium. Experimental group I was added with fresh culture medium containing 50 μg/mL synthesized peptide of SEQ .117 NO :1; experimental group 2 was added with fresh culture medium containing 50 μg/mL synthesized peptide of SEQ ID NO:2; experimental group 3 was added with fresh culture medium containing 50 μg/mL synthesized peptide of SEQ ID NO 3, experimental group 4 was added with fresh culture medium containing 25 μg/mL synthesized peptide of SEQ ID NO:4; and experimental group 5 was added with fresh culture medium containing 1 mg/mL of catfish skin collagen peptide powder from Example. 1. Each group was triplicated and incubated at 37C. for 24 hours.
In each group, the culture medium was removed, and then the cells were washed twice with the PBS solution. Then, 200 μL of trypsin solution was added to react with the cells for 3 min, and 6 mL of fresh culture medium was added to stop the reaction. […]
The cell solution of the control group and the cell solution of each experimental group were analyzed for the activity of mitochondria by using a flow cytometer.
Standard deviations were calculated by an STDEV formula of Excel software, and whether statistically significant differences existed or not was analyzed by one-tail student t-test in the Excel software. […] The p value of each group was calculated compared to the control group. […]
In general terms: Flow cytometry measures light scatter and fluorescence of single cells or particles in a stream.

Series [2] relates to human brain neurons SH-SYSY. The series can be described thus: Inhibitory effect on brain neuron damage caused by MPP+ (MTT cell viability). The series is classed as cell-based. The conditions noted are these: 5 μM MPP+ alone (control group), 48 hours. As for the experimental part:
The cells, culture medium, MTT apoptosis detection solution, ELISA reader, and statistical method of cell viability used in this example are the same as in Example 5, and details are not described herein again.
The SII-SYSY cells were seeded at a density of 5×10^3 cells per well into a 96-well culture plate and incubated for 24 hours at 37° C. and 5% CO2.
The culture medium was removed from each well. The SH-SYSY cells were divided into a blank group, a control group, and an experimental group. The fresh culture medium was added into the wells of the blank group. The fresh culture medium containing 5 μM MPP+ was added into the wells of the control group. The fresh culture medium containing 5 μM MPP+ and 1 mg/mL catfish skin collagen peptide powder from Example 1 was added into the wells of the experimental group. Each group was triplicated and incubated at 37° C. for 48 hours.
Then, 15 μL of 5 MTT apoptosis detection solution was added to each group for 3-4 h at 37° C. and 5% CO2.
The culture medium in each well was removed. In each group, 50 μL of DMSO was added to dissolve the purple crystals of formazan. Finally, an absorbance (at 570 nm) of each group was measured by an ELISA reader to analyze the cell viability of each group.
Taking the value of the blank group as 100% of cell viability, each value of the control group and the experimental group was converted into cell viability (%).

On to “NGTGPQNH (listed as Pangasius bocourti) [SEQ ID NO: 1]”, for which the “relative accumulation of JC-1” value in series [1] (50 μg/mL synthesized peptide) came to 146.90%.

“GRGGFGGRGGFG (listed as Pangasius bocourti) [SEQ ID NO: 3, synthesized peptide, peptide fragment of nucleolin from catfish skin]”: the “relative accumulation of JC-1” value in series [1] (50 μg/mL synthesized peptide) is 120.95%.

As to “TAELEPLTDG (listed as Pangasius bocourti) [SEQ ID NO: 2, synthesized peptide, peptide fragment of NAD synthetase 1 from catfish skin]”, the “relative accumulation of JC-1” value in series [1] (50 μg/mL synthesized peptide) is 150,17%.

Regarding `C[n+]1ccc(-c2ccccc2)cc1` [MPP+, 1-methyl-4-phenylpyridin-1-ium], the cell viability (usually the share of living cells, or the viability signal relative to a control) in series [2] (SH-SYSY cells, blank group = 100%) amounted to 86%. Besides, the “cell viability reduced by” value in series [2] (vs blank group) was 14%.

As to “LVMGFHPQYL (listed as Pangasius bocourti) [SEQ ID NO: 4, synthesized peptide, peptide fragment of sestrin 1 from catfish skin]”, the “relative accumulation of JC-1” value in series [1] (25 μg/mL synthesized peptide) turned out to be 115.74%.

The record behind these values is patent publication US20220249622A1, “METHOD FOR PROTECTING BRAIN NEURON CELLS WITH BIOACTIVE COMPOUND” (TCI CO., LTD., priority 2021, published 2022).
